The nature of test [1]: Inhibition of gamma-secretase-mediated amyloid beta-42 production in diluted 2B7 conditioned media after 5 hrs.
Test [2] is described as follows: Inhibition of gamma-secretase-mediated amyloid beta-40 production in diluted 2B7 conditioned media at 4 uM after 5 hrs.
Test [3] can be described thus: Inhibition of gamma-secretase-mediated amyloid beta-40 production in diluted 2B7 conditioned media after 5 hrs.
Test [4] is described as follows: Inhibition of gamma-secretase-mediated amyloid beta-40 production in diluted 2B7 conditioned media at 20 uM after 5 hrs.

Where only a bound is given, the exact number is not on record here.

Broadly, the IC50 is the midpoint of a concentration-inhibition curve. A lower IC50 goes with higher potency. Usually inhibition stands for the relative decrease from the control value, in per cent. Read a high inhibition as a strong effect. Compound `CC(=O)O[C@@H]([C@H]1C[C@@H](C)[C@H]2[C@H](O1)[C@H](O)[C@@]1(C)[C@@H]3CC[C@H]4C(C)(C)[C@@H](O[C@H]5CN(C6CCOCC6)CCO5)CC[C@@]45C[C@@]35CC[C@]21C)C(C)(C)O` had an IC50 in test [1] of 180 nM. In test [2], the inhibition came out at 38%.

As to `CC(=O)O[C@@H]([C@H]1C[C@@H](C)[C@H]2[C@H](O1)[C@H](O)[C@@]1(C)[C@@H]3CC[C@H]4C(C)(C)[C@@H](O[C@H]5CN(CC(N)=O)CCO5)CC[C@@]45C[C@@]35CC[C@]21C)C(C)(C)O`, the IC50 in test [1] was 150 nM; in test [3], 7800 nM.

Take `CC(=O)O[C@@H]([C@H]1C[C@@H](C)[C@H]2[C@H](O1)[C@H](O)[C@@]1(C)[C@@H]3CC[C@H]4C(C)(C)[C@@H](O[C@H]5CN(C6CCC6)CCO5)CC[C@@]45C[C@@]35CC[C@]21C)C(C)(C)O`: in test [1], the IC50 was 350 nM. Further, the inhibition in test [2] was found to be 44%.

On to `CC(=O)O[C@@H]([C@H]1C[C@@H](C)[C@H]2[C@H](O1)[C@H](O)[C@@]1(C)[C@@H]3CC[C@H]4C(C)(C)[C@@H](O[C@H]5CN(C(=O)C6(C)COC6)CCO5)CC[C@@]45C[C@@]35CC[C@]21C)C(C)(C)O`, for which the half-inhibitory concentration (IC50) is 80 nM in test [1] and 8000 nM in test [3].

On to `CC(=O)O[C@@H]([C@H]1C[C@@H](C)[C@H]2[C@H](O1)[C@H](O)[C@@]1(C)[C@@H]3CC[C@H]4C(C)(C)[C@@H](O[C@H]5CN(CC(C)(C)O)CCO5)CC[C@@]45C[C@@]35CC[C@]21C)C(C)(C)O`, for which the IC50 worked out at 230 nM in test [1] and 9400 nM in test [3].

For the compound `CC(=O)O[C@@H]([C@H]1C[C@@H](C)[C@H]2[C@H](O1)[C@H](O)[C@@]1(C)[C@@H]3CC[C@H]4C(C)(C)[C@@H](O[C@H]5CN(C(C)=O)CCO5)CC[C@@]45C[C@@]35CC[C@]21C)C(C)(C)O`, the IC50 amounted to 90 nM in test [1] and 13400 nM in test [3].

`C[C@@H]1C[C@H]([C@H](O)C(C)(C)O)O[C@H]2[C@H]1[C@@]1(C)CC[C@@]34C[C@@]35CC[C@H](O)C(C)(C)[C@@H]5CC[C@H]4[C@]1(C)[C@H]2O` yielded a half-maximal inhibitory concentration (IC50) in test [1] greater than 10000 nM.

On to `COCCN1CCO[C@@H](O[C@H]2CC[C@]34C[C@]35CC[C@]3(C)[C@@H]6[C@H](O[C@@H]([C@H](OC(C)=O)C(C)(C)O)C[C@H]6C)[C@H](O)[C@@]3(C)[C@@H]5CC[C@H]4C2(C)C)C1`, for which the half-maximal inhibitory concentration (IC50) in test [1] worked out at 210 nM; in test [3], 7600 nM.

In the case of `CC(=O)O[C@@H]([C@H]1C[C@@H](C)[C@H]2[C@H](O1)[C@H](O)[C@@]1(C)[C@@H]3CC[C@H]4C(C)(C)[C@@H](O[C@H]5CN(CC(F)(F)F)CCO5)CC[C@@]45C[C@@]35CC[C@]21C)C(C)(C)O`, the IC50 in test [1] was 1190 nM. Further, the inhibition in test [4] amounted to 47%.

As to `CC(=O)O[C@@H]([C@H]1C[C@@H](C)[C@H]2[C@H](O1)[C@H](O)[C@@]1(C)[C@@H]3CC[C@H]4C(C)(C)[C@@H](O[C@H]5CN(C(=O)c6ccno6)CCO5)CC[C@@]45C[C@@]35CC[C@]21C)C(C)(C)O`, the results for the IC50 in test [1] and in test [3] were 70 nM and 4800 nM, respectively.

In test [1], `CC(=O)O[C@@H]([C@H]1C[C@@H](C)[C@H]2[C@H](O1)[C@H](O)[C@@]1(C)[C@@H]3CC[C@H]4C(C)(C)[C@@H](O[C@H]5CN(Cc6ccccc6)CCO5)CC[C@@]45C[C@@]35CC[C@]21C)C(C)(C)O` displayed a concentration for half-maximal inhibition (IC50) of 2000 nM. Besides, the inhibition in test [2] stood at 4%.

In the case of `CC(=O)O[C@@H]([C@H]1C[C@@H](C)[C@H]2[C@H](O1)[C@H](O)[C@@]1(C)[C@@H]3CC[C@H]4C(C)(C)[C@@H](O[C@@H](CO)OCCO)CC[C@@]45C[C@@]35CC[C@]21C)C(C)(C)O`, in test [1], the IC50 was found to be 100 nM.

In turn, `CC(=O)O[C@@H]([C@H]1C[C@@H](C)[C@H]2[C@H](O1)[C@H](O)[C@@]1(C)[C@@H]3CC[C@H]4C(C)(C)[C@@H](O[C@H]5CN(C(=O)CC6CC6)CCO5)CC[C@@]45C[C@@]35CC[C@]21C)C(C)(C)O` registered an IC50 in test [1] of 130 nM. The inhibition in test [4] was determined as 38%.

In turn, `CCN1CCO[C@@H](O[C@H]2CC[C@]34C[C@]35CC[C@]3(C)[C@@H]6[C@H](O[C@@H]([C@H](OC(C)=O)C(C)(C)O)C[C@H]6C)[C@H](O)[C@@]3(C)[C@@H]5CC[C@H]4C2(C)C)C1` gave an IC50 in test [1] of 190 nM. The inhibition in test [2] amounted to 42%.

In the case of `CC(=O)O[C@@H]([C@H]1C[C@@H](C)[C@H]2[C@H](O1)[C@H](O)[C@@]1(C)[C@@H]3CC[C@H]4C(C)(C)[C@@H](O[C@H]5CN(C)CCO5)CC[C@@]45C[C@@]35CC[C@]21C)C(C)(C)O`, the results for the half-maximal inhibitory concentration (IC50) in test [1] and in test [3] were 130 nM and 3400 nM, respectively.

`CC(=O)O[C@@H]([C@H]1C[C@@H](C)[C@H]2[C@H](O1)[C@H](O)[C@@]1(C)[C@@H]3CC[C@H]4C(C)(C)[C@@H](O[C@@H](CN(C)C)OCCN(C)C)CC[C@@]45C[C@@]35CC[C@]21C)C(C)(C)O` registered a concentration for half-maximal inhibition (IC50) in test [1] of 2400 nM.

Take `CC(=O)O[C@@H]([C@H]1C[C@@H](C)[C@H]2[C@H](O1)[C@H](O)[C@@]1(C)[C@@H]3CC[C@H]4C(C)(C)[C@@H](O[C@H]5CN(CC(=O)O)CCO5)CC[C@@]45C[C@@]35CC[C@]21C)C(C)(C)O`: the values for the half-inhibitory concentration (IC50) in test [1] and in test [3] were 370 nM and 14000 nM, respectively.

As for `CC(=O)O[C@@H]([C@H]1C[C@@H](C)[C@H]2[C@H](O1)[C@H](O)[C@@]1(C)[C@@H]3CC[C@H]4C(C)(C)[C@@H](O[C@H]5CN(CCO)CCO5)CC[C@@]45C[C@@]35CC[C@]21C)C(C)(C)O`, in test [1], the half-inhibitory concentration (IC50) worked out at 240 nM. In test [2], this compound came in with an inhibition of 46%.

For the compound `CC(=O)O[C@@H]([C@H]1C[C@@H](C)[C@H]2[C@H](O1)[C@H](O)[C@@]1(C)[C@@H]3CC[C@H]4C(C)(C)[C@@H](O[C@H]5CN(C6CC6)CCO5)CC[C@@]45C[C@@]35CC[C@]21C)C(C)(C)O`, the IC50 in test [1] was determined as 1000 nM. The inhibition in test [4] was 35%.

`CC(=O)O[C@@H]([C@H]1C[C@@H](C)[C@H]2[C@H](O1)[C@H](O)[C@@]1(C)[C@@H]3CC[C@H]4C(C)(C)[C@@H](O[C@H]5CN(S(C)(=O)=O)CCO5)CC[C@@]45C[C@@]35CC[C@]21C)C(C)(C)O`: in test [1], inhibition was half-maximal at 80 nM (IC50). The compound further had an inhibition in test [4] of 40%.

Regarding `CC(=O)OC(C)(C)[C@H]1O[C@@]23O[C@@H]1C[C@@H](C)C2[C@@]1(C)CC[C@@]24C[C@@]25CC[C@H](O[C@@H]2OC[C@@H](O)[C@H](O)[C@H]2O)C(C)(C)[C@@H]5CC[C@H]4[C@]1(C)[C@H]3O` (stereo not given in full), the IC50 in test [1] was determined as 3000 nM.

Consider `CC(=O)O[C@@H]([C@H]1C[C@@H](C)[C@H]2[C@H](O1)C(=O)[C@@]1(C)[C@@H]3CC[C@H]4C(C)(C)[C@@H](O[C@@H]5OC[C@@H](O)[C@H](O)[C@H]5O)CC[C@@]45C[C@@]35CC[C@]21C)C(C)(C)O`, for which the IC50 in test [1] came out at 600 nM.

As for `CC(=O)O[C@@H]([C@H]1C[C@@H](C)[C@H]2[C@H](O1)[C@H](O)[C@@]1(C)[C@@H]3CC[C@H]4C(C)(C)[C@@H](O)CC[C@@]45C[C@@]35CC[C@]21C)C(C)(C)O`, in test [1], the 50% inhibitory concentration (IC50) amounted to 600 nM.

`CC(=O)O[C@@H]([C@H]1C[C@@H](C)[C@H]2[C@H](O1)[C@H](O)[C@@]1(C)[C@@H]3CC[C@H]4C(C)(C)[C@@H](O[C@H]5CN(C(=O)c6cn(C)cn6)CCO5)CC[C@@]45C[C@@]35CC[C@]21C)C(C)(C)O` returned an IC50 in test [1] of 130 nM. In test [4], the inhibition worked out at 44%.

Consider `CCCN1CCO[C@@H](O[C@H]2CC[C@]34C[C@]35CC[C@]3(C)[C@@H]6[C@H](O[C@@H]([C@H](OC(C)=O)C(C)(C)O)C[C@H]6C)[C@H](O)[C@@]3(C)[C@@H]5CC[C@H]4C2(C)C)C1`, for which the figures for the IC50 in test [1] and in test [3] were 680 nM and 15900 nM, respectively.

`CC(=O)O[C@@H]([C@H]1C[C@@H](C)[C@H]2[C@H](O1)[C@H](O)[C@@]1(C)[C@@H]3CC[C@H]4C(C)(C)[C@@H](O[C@H]5CN(C(=O)N(C)C)CCO5)CC[C@@]45C[C@@]35CC[C@]21C)C(C)(C)O` showed an IC50 in test [1] of 60 nM. Besides, in test [4], the inhibition amounted to 40%.

As to `CC(=O)O[C@@H]([C@H]1C[C@@H](C)[C@H]2[C@H](O1)[C@H](O)[C@@]1(C)[C@@H]3CC[C@H]4C(C)(C)[C@@H](O[C@H]5CN(CC(=O)N(C)C)CCO5)CC[C@@]45C[C@@]35CC[C@]21C)C(C)(C)O`, the figures for the concentration for half-maximal inhibition (IC50) in test [1] and in test [3] were 140 nM and 9000 nM, respectively.

In the case of `CC(=O)O[C@@H]([C@H]1C[C@@H](C)[C@H]2[C@H](O1)[C@H](O)[C@@]1(C)[C@@H]3CC[C@H]4C(C)(C)[C@@H](O[C@H]5CN([C@H]6CCNC6=O)CCO5)CC[C@@]45C[C@@]35CC[C@]21C)C(C)(C)O`, the concentration for half-maximal inhibition (IC50) in test [1] was determined as 200 nM; in test [3] it was 7000 nM.

In the case of `CC(=O)O[C@@H]([C@H]1C[C@@H](C)[C@H]2[C@H](O1)[C@H](O)[C@@]1(C)[C@@H]3CC[C@H]4C(C)(C)[C@@H](O[C@H]5CN([C@@H]6CCNC6=O)CCO5)CC[C@@]45C[C@@]35CC[C@]21C)C(C)(C)O`, the IC50 in test [1] came to 120 nM. In test [4], this compound showed an inhibition of 44%.

Regarding `CC(=O)O[C@@H]([C@H]1C[C@@H](C)[C@H]2[C@H](O1)[C@H](O)[C@@]1(C)[C@@H]3CC[C@H]4C(C)(C)[C@@H](O[C@H]5CN(CCC(=O)O)CCO5)CC[C@@]45C[C@@]35CC[C@]21C)C(C)(C)O`, the results for the half-inhibitory concentration (IC50) in test [1] and in test [3] were 490 nM and 18800 nM, respectively.

Take `C[C@@H]1C[C@H]([C@H](O)C(C)(C)O)O[C@H]2[C@H]1[C@@]1(C)CC[C@@]34C[C@@]35CC[C@H](O[C@@H]3OC[C@@H](O)[C@H](O)[C@H]3O)C(C)(C)[C@@H]5CC[C@H]4[C@]1(C)[C@H]2O`: it took 3100 nM to reach half-maximal inhibition in test [1] (IC50).

The values are drawn from ChEMBL document CHEMBL2150910, “Initial Optimization of a New Series of γ-Secretase Modulators Derived from a Triterpene Glycoside” (ACS Med Chem Lett, 2012).
